Results from patent US11925672B2, “Peptide having antioxidant activity and composition containing same” (SEMPIO FOODS COMPANY, priority 2018, dated 2024).
“Also recorded” adds a separate entry of the source. Numbered stars: 1 amine (or outer) side, 2 acyl side, 3 side chain; on linkers, the order of the positions; unused ones are H or OH. Square brackets hold non-standard residues; d marks the D form. Ends that are not written are not given here. γGlu = O=C(O)[C@H](CCC(=O)[*:2])N[*:1]; Orn = NCCC[C@H](N)C(=O)O; Abu = CC[C@H](N)C(=O)O

How the values were obtained:
[1] = system: Nrf2 mRNA; test: Nrf2 mRNA expression level by real-time PCR in Tert-BHP-treated HEK293 cells; format: cell-based; details: Tert-BHP 300 μM, peptide 500 μM, 18 hours; for effect on expression of Nrf2 mRNA: FIGS. 5A to 5C; for Nrf2 mRNA expression compared to positive control GSH: vs GSH
Experimental: In the present invention, the antioxidant activity was compared between the 100 types of peptides, and the change in Nrf2 mRNA expression was measured through PCR in order to select the final peptide.
(§1) An HEK293 cell (kidney cell) line was seeded at a density of 6.6×10^5/well in DMEM (Dulbecco's Modified Eagle's Medium) medium on a 6-well plate and cultured at 37° C. under 5% CO2 for 24 hours. The next day, the medium was exchanged with serum and amino-acid-free media, and then the cells were further cultured for 20 hours or longer. The cells were treated with Tert-BHP (300 μM) and 500 μM 100 types of peptides, and then cultured for 18 hours.
RNA was extracted from the cells treated with 100 types of peptides in (1) using TRIzol (Thermo Fisher Scientific). A GoScript™ Reverse Transcription System (Promega, Wisconsin, USA) was used to synthesize cDNA from the RNA. The cDNA was synthesized by performing annealing using 1 μg of RNA, 0.5 μg of an oligo dt primer, 0.5 μg of a random primer and RT-PCR pre-mixture at 25° C. for 5 minutes, extension at 42° C. for 60 minutes, and inactivation at 70° C. for 15 minutes.
(§2) PCR was performed using Maxime™ PCR PreMix (i-StarTaq) (Intron Biotechnology, Korea). Real-time PCR was performed using SsoAdvanced™ Universal SYBR® Green Supermix (Bio-Rad, USA). 100 ng of cDNA, 2 μM (pmol/μl) primers, 10 μl of 2X SsoAdvanced™ Universal SYBR® Green Supermix and DW were added to the PCR plate well. Then, the temperature was cyclically adjusted to 95° C. for 3 minutes, 95° C. for 10 seconds and 58° C. for 40 seconds for a total of 40 cycles. A PCR reaction was performed using a CFX96 Touch™ Real-Time PCR Detection System (Bio-Rad, California, USA), and fluorescence intensity was measured at the end of each cycle.

[2] = system: SOD2 mRNA; test: SOD2 mRNA expression level by real-time PCR in Tert-BHP-treated HEK293 cells; format: cell-based; details: Tert-BHP 300 μM, peptide 500 μM, 18 hours; for effect on SOD2 mRNA expression: FIG. 6; for SOD2 mRNA expression compared to positive control GSH: vs GSH
Experimental: The expression of SOD2 mRNA as another antioxidant factor was determined. The cell line culture, RNA extraction, cDNA synthesis and PCR experiments were performed in the same manner as in Experimental Example 5 above. A detailed description thereof is given below.
as §1, with “and” for “under”
RNA was extracted from the cells treated with 100 types of peptides in (1) using TRIzol (Thermo Fisher Scientific). A GoScript™ Reverse Transcription System (Promega, Wisconsin, USA) was used to synthesize cDNA from the RNA. The cDNA was synthesized by performing annealing with 1 μg RNA, 0.5 μg of an oligo dt primer, 0.5 μg of a random primer, and RT-PCR pre-mixture at 25° C. for 5 minutes, extension at 42° C. for 60 minutes, and inactivation at 70° C. for 15 minutes.
as §2, with “using the” for “using a”

γ-GLU-VAL-MET ([γGlu]-Val-Met; also: gamma-glutamyl isopeptide bond (Glu side chain to Val))
effect on expression of Nrf2 mRNA [1]: improve the expression of Nrf2 mRNA | Nrf2 mRNA expression compared to positive control GSH [1]: remarkably excellent effect; also recorded: statistically significant activity | effect on SOD2 mRNA expression [2]: increased SOD2 mRNA expression | SOD2 mRNA expression compared to positive control GSH [2]: remarkably excellent; also recorded: statistically significant activity

β-GLU-HIS
effect on expression of Nrf2 mRNA [1]: no effect

γ-GLU-VAL-ARG ([γGlu]-Val-Arg; also: gamma-glutamyl isopeptide bond (Glu side chain to Val))
effect on expression of Nrf2 mRNA [1]: improve the expression of Nrf2 mRNA | Nrf2 mRNA expression compared to positive control GSH [1]: remarkably excellent effect; also recorded: statistically significant activity | effect on SOD2 mRNA expression [2]: increased SOD2 mRNA expression | SOD2 mRNA expression compared to positive control GSH [2]: remarkably excellent; also recorded: statistically significant activity

γ-GLU-VAL-VAL ([γGlu]-Val-Val; also: gamma-glutamyl isopeptide bond (Glu side chain to Val))
effect on expression of Nrf2 mRNA [1]: improve the expression of Nrf2 mRNA | effect on SOD2 mRNA expression [2]: increased SOD2 mRNA expression

γ-GLU-ILE-GLY ([γGlu]-Ile-Gly)
effect on expression of Nrf2 mRNA [1]: improve the expression of Nrf2 mRNA | Nrf2 mRNA expression compared to positive control GSH [1]: remarkably excellent effect; also recorded: statistically significant activity | effect on SOD2 mRNA expression [2]: increased SOD2 mRNA expression | SOD2 mRNA expression compared to positive control GSH [2]: remarkably excellent; also recorded: statistically significant activity

γ-GLU-ALA-GLY (Glu-Ala-Gly; not fully specified (residue 1); printed as γ-GLU-ALA-GLY)
effect on expression of Nrf2 mRNA [1]: improve the expression of Nrf2 mRNA

γ-GLU-VAL-ALA ([γGlu]-Val-Ala; also: gamma-glutamyl isopeptide bond (Glu side chain to Val))
effect on expression of Nrf2 mRNA [1]: improve the expression of Nrf2 mRNA | effect on SOD2 mRNA expression [2]: increased SOD2 mRNA expression

γ-GLU-VAL-GLY ([γGlu]-Val-Gly; also: gamma-glutamyl isopeptide bond (Glu side chain to Val))
effect on expression of Nrf2 mRNA [1]: improve the expression of Nrf2 mRNA | effect on SOD2 mRNA expression [2]: increased SOD2 mRNA expression | SOD2 mRNA expression compared to positive control GSH [2]: remarkably excellent

γ-GLU-VAL-PRO ([γGlu]-Val-Pro; also: gamma-glutamyl isopeptide bond (Glu side chain to Val))
effect on expression of Nrf2 mRNA [1]: improve the expression of Nrf2 mRNA | effect on SOD2 mRNA expression [2]: increased SOD2 mRNA expression

γ-GLU-CYS(S-Me)-GLY ([γGlu]-Cys(Me)-Gly)
effect on expression of Nrf2 mRNA [1]: improve the expression of Nrf2 mRNA

γ-GLU-PRO-GLY ([γGlu]-Pro-Gly)
effect on expression of Nrf2 mRNA [1]: improve the expression of Nrf2 mRNA | Nrf2 mRNA expression compared to positive control GSH [1]: remarkably excellent effect; also recorded: statistically significant activity | effect on SOD2 mRNA expression [2]: increased SOD2 mRNA expression | SOD2 mRNA expression compared to positive control GSH [2]: remarkably excellent; also recorded: statistically significant activity

γ-GLU-SER-GLY ([γGlu]-Ser-Gly; also: gamma-glutamyl isopeptide bond (Glu side chain to Ser))
effect on expression of Nrf2 mRNA [1]: improve the expression of Nrf2 mRNA | Nrf2 mRNA expression compared to positive control GSH [1]: statistically significant activity | SOD2 mRNA expression compared to positive control GSH [2]: remarkably excellent; also recorded: statistically significant activity

γ-GLU-GLU-GLU ([γGlu]-Glu-Glu)
effect on expression of Nrf2 mRNA [1]: improve the expression of Nrf2 mRNA

γ-GLU-VAL-HIS ([γGlu]-Val-His; also: gamma-glutamyl isopeptide bond (Glu side chain to Val))
effect on expression of Nrf2 mRNA [1]: improve the expression of Nrf2 mRNA | effect on SOD2 mRNA expression [2]: increased SOD2 mRNA expression | SOD2 mRNA expression compared to positive control GSH [2]: remarkably excellent

γ-GLU-VAL-PHE ([γGlu]-Val-Phe; also: gamma-glutamyl isopeptide bond (Glu side chain to Val))
effect on expression of Nrf2 mRNA [1]: improve the expression of Nrf2 mRNA | Nrf2 mRNA expression compared to positive control GSH [1]: remarkably excellent effect; also recorded: statistically significant activity | effect on SOD2 mRNA expression [2]: increased SOD2 mRNA expression | SOD2 mRNA expression compared to positive control GSH [2]: remarkably excellent; also recorded: statistically significant activity

γ-GLU-VAL-GLU ([γGlu]-Val-Glu; also: gamma-glutamyl isopeptide bond (Glu side chain to Val))
effect on expression of Nrf2 mRNA [1]: improve the expression of Nrf2 mRNA | Nrf2 mRNA expression compared to positive control GSH [1]: remarkably excellent effect; also recorded: statistically significant activity | effect on SOD2 mRNA expression [2]: increased SOD2 mRNA expression | SOD2 mRNA expression compared to positive control GSH [2]: remarkably excellent; also recorded: statistically significant activity

γ-GLU-ORN
effect on expression of Nrf2 mRNA [1]: improve the expression of Nrf2 mRNA | Nrf2 mRNA expression compared to positive control GSH [1]: comparable or superior

γ-GLU-VAL-ASN ([γGlu]-Val-Asn; also: gamma-glutamyl isopeptide bond (Glu side chain to Val))
effect on expression of Nrf2 mRNA [1]: improve the expression of Nrf2 mRNA | Nrf2 mRNA expression compared to positive control GSH [1]: remarkably excellent effect; also recorded: statistically significant activity | effect on SOD2 mRNA expression [2]: increased SOD2 mRNA expression | SOD2 mRNA expression compared to positive control GSH [2]: remarkably excellent; also recorded: statistically significant activity

γ-GLU-VAL-LYS ([γGlu]-Val-Lys; also: gamma-glutamyl isopeptide bond (Glu side chain to Val))
effect on expression of Nrf2 mRNA [1]: improve the expression of Nrf2 mRNA | effect on SOD2 mRNA expression [2]: increased SOD2 mRNA expression

γ-GLU-GLN-GLN ([γGlu]-Gln-Gln)
effect on expression of Nrf2 mRNA [1]: improve the expression of Nrf2 mRNA | effect on SOD2 mRNA expression [2]: increased SOD2 mRNA expression

γ-GLU-LEU-GLY ([γGlu]-Leu-Gly)
effect on expression of Nrf2 mRNA [1]: improve the expression of Nrf2 mRNA

γ-GLU-Abu-GLY ([γGlu]-[Abu]-Gly; also: γ-peptide bond from Glu side chain carboxyl to Abu)
effect on expression of Nrf2 mRNA [1]: improve the expression of Nrf2 mRNA | effect on SOD2 mRNA expression [2]: increased SOD2 mRNA expression | SOD2 mRNA expression compared to positive control GSH [2]: remarkably excellent

γ-GLU-VAL-ORN ([γGlu]-Val-[Orn]; also: γ-peptide bond from Glu side chain carboxyl to Val)
effect on expression of Nrf2 mRNA [1]: improve the expression of Nrf2 mRNA | effect on SOD2 mRNA expression [2]: increased SOD2 mRNA expression

γ-GLU-VAL-ASP ([γGlu]-Val-Asp; also: gamma-glutamyl isopeptide bond (Glu side chain to Val))
effect on expression of Nrf2 mRNA [1]: improve the expression of Nrf2 mRNA | Nrf2 mRNA expression compared to positive control GSH [1]: remarkably excellent effect; also recorded: statistically significant activity | effect on SOD2 mRNA expression [2]: increased SOD2 mRNA expression | SOD2 mRNA expression compared to positive control GSH [2]: remarkably excellent; also recorded: statistically significant activity
